Test results from patent US20210395248A1, “INHIBITORS OF HUMAN IMMUNODEFICIENCY VIRUS REPLICATION” (ViiV HEALTHCARE UK (NO.5) LIMITED, priority 2018, published 2021).
Where two headings read alike, the source gives them in different places.

What was measured:
[1] = Compound cytotoxicity, XTT-based colorimetric assay; format: cell-based; conditions: human
Description: Compound cytotoxicity and the corresponding CC50 values were determined using the same protocol as described in the antiviral assay except that uninfected cells were used. Cytotoxicity was assessed on day 4 in uninfected MT2 cells by using a XTT (2,3-bis [2-Methoxy-4-nitro-5-sulfophenyl]-2H-tetrazolium-5-carboxyanilide inner salt)-based colorimetric assay (Sigma-Aldrich, St Louis, Mo.).

[2] = system: recombinant NL4-3 virus (Renilla luciferase reporter) in MT-2 cells; assay: HIV cell culture assay (antiviral activity, luciferase readout in infected MT-2 cells); format: cell-based; conditions: NL43
Description: HIV cell culture assay—MT-2 cells, 293T cells and the proviral DNA clone of NL4-3 virus were obtained from the NIH AIDS Research and Reference Reagent Program. MT-2 cells were propagated in RPMI 1640 media supplemented with 10% heat inactivated fetal bovine serum (FBS), […]. The 293T cells were propagated in DMEM media supplemented with 10% heat inactivated FBS, […]. A recombinant NL4-3 proviral clone, in which a section of the nef gene was replaced with the Renilla luciferase gene, was used to make the reference virus used in these studies. The recombinant virus was prepared through transfection of the recombinant NL4-3 proviral clone into 293T cells using Transit-293 Transfection Reagent from Mirus Bio LLC (Madison, Wis.). Supernatent was harvested after 2-3 days and the amount of virus present was titered in MT-2 cells using luciferase enzyme activity as a marker by measuring luciferase enzyme activity. Luciferase was quantitated using the EnduRen Live Cell Substrate from Promega (Madison, Wis.). Antiviral activities of compounds toward the recombinant virus were quantified by measuring luciferase activity in MT-2 cells infected for 4-5 days with the recombinant virus in the presence of serial dilutions of the compound.
The 50% effective concentration (EC50) was calculated by using the exponential form of the median effect equation where (Fa)=1/[1+(EC50/drug conc.)m] (Johnson V A, Byington RT. Infectivity Assay. In Techniques in HIV Research, ed. Aldovini A, Walker B D. 71-76. New York: Stockton Press. 1990). The 50% inhibitory concentration (EC50) was calculated by using the exponential form of the median effect equation where percent inhibition=1/[1+(EC50/drug concentration)m], where m is a parameter that reflects the slope of the concentration-response curve.

[3] = uninfected MT2 cells, day 4, XTT, read-out: CC50

Structure (SMILES) | CC50 at 4 days [1, 3] [nM] | EC50 [2] [nM] | CC50 at 4 days [1] [nM]
C[C@@H]1CN(c2ccc3c(=O)n(-c4ccc(Cl)c5c(NS(C)(=O)=O)nn(CC(F)F)c45)c([C@H](Cc4cc(F)cc(F)c4)NC(=O)Cn4nc(C(F)F)c5c4C(F)(F)[C@@H]4C[C@H]54)nc3n2)C[C@H](C)O1 (atropisomer, axis not shown; (aR)) [Example 3, N—((S)-1-(3-(4-chloro-1-(2,2-difluoroethyl)-3-(methylsulfonamido)-1H-indazol-7-yl)-7-((2S,6R)-2,6-dimethylmorpholino)-4-oxo-3,4-dihydropyrido[2,3-d]pyrimidin-2-yl)-2-(3,5-difluorophenyl)ethyl)-2-((3bS,4aR)-3-(difluoromethyl)-5,5-difluoro-3b,4,4a,5-tetrahydro-1H-cyclopropa[3,4]cyclopenta[1,2-c]pyrazol-1-yl)acetamide] | > 500 | 0.032 | –
C[C@@H]1CN(c2ccc3c(=O)n(-c4ccc(Cl)c5c(NS(C)(=O)=O)nn(CC(F)F)c45)c([C@H](Cc4cc(F)cc(F)c4)NC(=O)Cn4nc(C(F)(F)F)c5c4C(F)(F)[C@@H]4C[C@H]54)nc3n2)C[C@H](C)O1 (atropisomer, axis not shown; (aR)) [Example 4, N—((S)-1-(3-(4-chloro-1-(2,2-difluoroethyl)-3-(methylsulfonamido)-1H-indazol-7-yl)-7-((2S,6R)-2,6-dimethylmorpholino)-4-oxo-3,4-dihydropyrido[2,3-d]pyrimidin-2-yl)-2-(3,5-difluorophenyl)ethyl)-2-((3bS,4aR)-5,5-difluoro-3-(trifluoromethyl)-3b,4,4a,5-tetrahydro-1H-cyclopropa[3,4]cyclopenta[1,2-c]pyrazol-1-yl)acetamide] | > 500 | 0.031 | –
C[C@@H]1CN(c2ccc3c(=O)n(-c4ccc(Cl)c5c(NS(=O)(=O)C6CC6)nn(CC(F)F)c45)c([C@H](Cc4cc(F)cc(F)c4)NC(=O)Cn4nc(C(F)F)c5c4C(F)(F)[C@@H]4C[C@H]54)nc3n2)C[C@H](C)O1 (atropisomer, axis not shown; (aR)) [Example 5, N—((S)-1-(3-(4-chloro-3-(cyclopropanesulfonamido)-1-(2,2-difluoroethyl)-1H-indazol-7-yl)-7-((2S,6R)-2,6-dimethylmorpholino)-4-oxo-3,4-dihydropyrido[2,3-d]pyrimidin-2-yl)-2-(3,5-difluorophenyl)ethyl)-2-((3bS,4aR)-3-(difluoromethyl)-5,5-difluoro-3b,4,4a,5-tetrahydro-1H-cyclopropa[3,4]cyclopenta[1,2-c]pyrazol-1-yl)acetamide] | > 500 | 0.03 | –
C[C@@H]1CN(c2ccc3c(=O)n(-c4ccc(Cl)c5c(NS(=O)(=O)C6CC6)nn(CC(F)F)c45)c([C@H](Cc4cc(F)cc(F)c4)NC(=O)Cn4nc(C(F)(F)F)c5c4C(F)(F)[C@@H]4C[C@H]54)nc3n2)C[C@H](C)O1 (atropisomer, axis not shown; (aR)) [Example 6, N—((S)-1-(3-(4-chloro-3-(cyclopropanesulfonamido)-1-(2,2-difluoroethyl)-1H-indazol-7-yl)-7-((2S,6R)-2,6-dimethylmorpholino)-4-oxo-3,4-dihydropyrido[2,3-d]pyrimidin-2-yl)-2-(3,5-difluorophenyl)ethyl)-2-((3bS,4aR)-5,5-difluoro-3-(trifluoromethyl)-3b,4,4a,5-tetrahydro-1H-cyclopropa[3,4]cyclopenta[1,2-c]pyrazol-1-yl)acetamide] | > 500 | 0.04 | –
C[C@@H]1CN(c2ccc3c(=O)n(-c4ccc(Cl)c5c(NS(C)(=O)=O)nn(CC(F)(F)F)c45)c([C@H](Cc4cc(F)cc(F)c4)NC(=O)Cn4nc(C(F)F)c5c4C(F)(F)[C@@H]4C[C@H]54)nc3n2)C[C@H](C)O1 (atropisomer, axis not shown; (aR)) [Example 7, N—((S)-1-(3-(4-chloro-3-(methylsulfonamido)-1-(2,2,2-trifluoroethyl)-1H-indazol-7-yl)-7-((2S,6R)-2,6-dimethylmorpholino)-4-oxo-3,4-dihydropyrido[2,3-d]pyrimidin-2-yl)-2-(3,5-difluorophenyl)ethyl)-2-((3bS,4aR)-3-(difluoromethyl)-5,5-difluoro-3b,4,4a,5-tetrahydro-1H-cyclopropa[3,4]cyclopenta[1,2-c]pyrazol-1-yl)acetamide] | > 500 | 0.028 | –
C[C@@H]1CN(c2ccc3c(=O)n(-c4ccc(Cl)c5c(NS(C)(=O)=O)nn(CC(F)(F)F)c45)c([C@H](Cc4cc(F)cc(F)c4)NC(=O)Cn4nc(C(F)(F)F)c5c4C(F)(F)[C@@H]4C[C@H]54)nc3n2)C[C@H](C)O1 (atropisomer, axis not shown; (aR)) [Example 8, N—((S)-1-(3-(4-chloro-3-(methylsulfonamido)-1-(2,2,2-trifluoroethyl)-1H-indazol-7-yl)-7-((2S,6R)-2,6-dimethylmorpholino)-4-oxo-3,4-dihydropyrido[2,3-d]pyrimidin-2-yl)-2-(3,5-difluorophenyl)ethyl)-2-((3bS,4aR)-5,5-difluoro-3-(trifluoromethyl)-3b,4,4a,5-tetrahydro-1H-cyclopropa[3,4]cyclopenta[1,2-c]pyrazol-1-yl)acetamide] | > 500 | 0.032 | –
CC(F)CCNc1ccc2c(=O)n(-c3ccc(Cl)c4c(NS(C)(=O)=O)nn(C)c34)c([C@H](Cc3cc(F)cc(F)c3)NC(=O)Cn3nc(C(F)F)c4c3C(F)(F)[C@@H]3C[C@H]43)nc2n1 (stereo partly drawn) [Example 9, N-((1S)-1-((3P)-3-(4-chloro-1-methyl-3-(methylsulfonamido)-1H-indazol-7-yl)-7-((3-fluorobutyl)amino)-4-oxo-3,4-dihydropyrido[2,3-d]pyrimidin-2-yl)-2-(3,5-difluorophenyl)ethyl)-2-((3bS,4aR)-3-(difluoromethyl)-5,5-difluoro-3b,4,4a,5-tetrahydro-1H-cyclopropa[3,4]cyclopenta[1,2-c]pyrazol-1-yl)acetamide] | > 100 | 0.046 | –
CCN(CCC(F)(F)F)c1ccc2c(=O)n(-c3ccc(Cl)c4c(NS(C)(=O)=O)nn(C)c34)c([C@H](Cc3cc(F)cc(F)c3)NC(=O)Cn3nc(C(F)F)c4c3C(F)(F)[C@@H]3C[C@H]43)nc2n1 [Example 10, N—((S)-1-((3P)-3-(4-chloro-1-methyl-3-(methylsulfonamido)-1H-indazol-7-yl)-7-(ethyl(3,3,3-trifluoropropyl)amino)-4-oxo-3,4-dihydropyrido[2,3-d]pyrimidin-2-yl)-2-(3,5-difluorophenyl)ethyl)-2-((3bS,4aR)-3-(difluoromethyl)-5,5-difluoro-3b,4,4a,5-tetrahydro-1H-cyclopropa[3,4]cyclopenta[1,2-c]pyrazol-1-yl)acetamide] | > 100 | 0.037 | –
Cn1nc(NS(C)(=O)=O)c2c(Cl)ccc(-n3c([C@H](Cc4cc(F)cc(F)c4)NC(=O)Cn4nc(C(F)F)c5c4C(F)(F)[C@@H]4C[C@H]54)nc4nc(N5C6CCC5COC6)ccc4c3=O)c21 [Example 20, N-((1S)-1-(7-(3-oxa-8-azabicyclo[3.2.1]octan-8-yl)-(3P)-3-(4-chloro-1-methyl-3-(methylsulfonamido)-1H-indazol-7-yl)-4-oxo-3,4-dihydropyrido[2,3-d]pyrimidin-2-yl)-2-(3,5-difluorophenyl)ethyl)-2-((3bS,4aR)-3-(difluoromethyl)-5,5-difluoro-3b,4,4a,5-tetrahydro-1H-cyclopropa[3,4]cyclopenta[1,2-c]pyrazol-1-yl)acetamide] | – | 0.05 | > 100
Cn1nc(NS(C)(=O)=O)c2c(Cl)ccc(-n3c([C@H](Cc4cc(F)cc(F)c4)NC(=O)Cn4nc(C(F)F)c5c4C(F)(F)[C@@H]4C[C@H]54)nc4nc(N5CC6CCC(C5)O6)ccc4c3=O)c21 [Example 21, N-((1S)-1-(7-(8-oxa-3-azabicyclo[3.2.1]octan-3-yl)-(3P)-3-(4-chloro-1-methyl-3-(methylsulfonamido)-1H-indazol-7-yl)-4-oxo-3,4-dihydropyrido[2,3-d]pyrimidin-2-yl)-2-(3,5-difluorophenyl)ethyl)-2-((3bS,4aR)-3-(difluoromethyl)-5,5-difluoro-3b,4,4a,5-tetrahydro-1H-cyclopropa[3,4]cyclopenta[1,2-c]pyrazol-1-yl)acetamide] | > 100 | 0.058 | –
